According to patent publication US20220288026A1, “METHODS OF TREATING KIDNEY DISEASES” (priority 2019, published 2022):
“Also recorded” adds a separate entry of the source. Where two headings read alike, the source gives them in different places.

Legend:
[1] = tested on: primary human renal mesangial cells (HRMCs); assay: Proliferation (BrdU) of HRMCs stimulated with IgA-containing immune complexes; format: cell-based
Excerpt: Primary human mesangial cells in a culture were stimulated with pathogenic galactose deficient (Gd)-IgA containing immune complexes isolated from human IgA nephropathy patients.
Specifically, pathogenic IgA-containing immune complexes were isolated from serum from either IgA nephropathy patients or age, gender and ethnicity-matched healthy individuals. Frozen serum was purchased from BioIVT and IgA-containing immune complexes were purified using jacalin affinity chromatography. […] Purified IgA-containing immune complexes were concentrated using a 100K Amicon filtration unit and the amount of total IgA and galactose-deficient IgA (Gd-IgA) in the immune complexes was measured by ELISA (ThermoFisher and IBL America, respectively). […] See, e.g., Novak et. al., Kidney International, 67, pp. 504-516; 2005; Novak et. al., Nephrol. Dial. Transplant, 26, pp. 3451-3457; 2011; Liang et. al., Cell Physiol. Biochem., 36, pp. 1793-1808; 2015; Nguyen et. al., Clin. Kidney J., 12 (2), pp, 232-238; 2019.

[2] = tested on: g-ddY mice; assay: UACR (albuminuria) in g-ddY mouse model of IgA nephropathy; format: in vivo
Excerpt: The grouped ddY (g-ddY) mouse is a spontaneous model of early-onset IgA nephropathy characterized by IgA immune complex deposition in the mesangium of the kidney, leading to significant proteinuria, glomerular hypercellularity, mesangioproliferative glomerular lesions, glomerular sclerosis and reduced kidney function, all hallmarks of human IgA nephropathy (J Am Soc Nephrol 23: 1364-1374, 2012). Consistent with human IgA nephropathy, the mesangial IgA deposits in the g-ddY mouse are also accompanied by deposition of IgG and complement C3.

[3] = tested on: kidney tissue of g-ddY mice; assay: Ingenuity Pathway Analysis (IPA) canonical pathways, g-ddY kidney RNA-seq; format: in vivo, mouse; conditions: 30 mg/kg/day
Description: (§1) RNA isolation and sequencing libraries were generated using standard protocols. Sequencing was performed using an Illumina NextSeq500 using manufacturer's instructions with a read length of 75 bp and a read depth of 30 million. Raw data was assembled to FASTQ files. Following QC analysis, high quality sequencing reads (e.g., reads with a Phred quality score >36) were aligned to the mouse reference genome (GRCm38-mm10) using the default parameters of the align algorithm and transcript count tables of each library was generated using the default parameters of the featureCounts algorithm of the RSubread package (Liao Y, Smyth G K, Shi W, 2019). High quality sequencing reads mapped to 27,129 genes. Following additional QC of low count filtering (i.e. transcripts <10 counts across all samples), 16,207 genes were identified and used for further analysis. The remaining sequencing read counts of the included 16,207 genes were normalized to library size, log-transformed, and were quantified as counts per million (CPM). Select RNA-seq counts were validated using qPCR.

[4] = tested on: kidney tissue of g-ddY mice; assay: Gene Set Enrichment Analysis (GSEA) hallmark gene sets, g-ddY kidney RNA-seq; format: in vivo, mouse
Description: as §1

[5] = tested on: kidney tissue of g-ddY mice; assay: IPA upstream regulator analysis, g-ddY kidney RNA-seq; format: in vivo, mouse; conditions: 30 mg/kg/day
[6] = tested on: kidney tissue of g-ddY mice
[7] = tested on: patients with diabetic kidney disease (DKD); conditions: cited from earlier work
[8] = 10 mg/kg/day vs untreated control
[9] = 20 mg/kg/day vs untreated control
[10] = 30 mg/kg/day vs untreated control

SMILES: CCCCN(CCCC)C(=O)CN1C[C@H](c2ccc3c(c2)OCO3)[C@@H](C(=O)O)[C@@H]1c1ccc(OC)cc1 [atrasentan, (2R,3R,4S)-4-(1,3-benzodioxol-5-yl)-1-[2-(dibutylamino)-2-oxoethyl]-2-(4-methoxyphenyl)pyrrolidine-3-carboxylic acid]
- basal cell proliferation of HRMCs ([1]; IgA containing serum fractions from healthy controls): no effect on basal cell proliferation
- hyperproliferation of HRMCs induced by IgA containing immune complexes ([1]; immune complexes from three patients with IgA nephropathy): reduces the proliferation; also recorded: significantly attenuated the hyperproliferation
- UACR reduction compared to control group (un-paired t-test) ([2]; 10 mg/kg/day): not significant
- mice with reduced albuminuria/proteinuria ([2]; 10 mg/kg/day group): ⅔
- albuminuria compared to baseline (paired t-test) ([2]; 10 mg/kg/day, approximately 5 days): not significantly changed from baseline
- UACR reduction compared to control group (un-paired t-test) ([2]; 20 mg/kg/day, P=0.0498): statistically significant compared to the control group
- albuminuria compared to baseline (paired t-test) ([2]; 20 mg/kg/day, approximately 5 days, P=0.0593): reduced from baseline to a similar extent
- UACR reduction compared to control group (un-paired t-test) ([2]; 30 mg/kg/day, P=0.029): statistically significant compared to the control group
- albuminuria compared to baseline (paired t-test) ([2]; 30 mg/kg/day, approximately 5 days, P=0.0002): reduced albuminuria from baseline
- albuminuria reduction from baseline ([2]; 20 and 30 mg/kg/day, approximately 5 days): > 60%
- IPA: effect on signaling pathways [3]: reduced NF-κB signaling, IL-6 pathway signaling (e.g., STAT3), and PDGF signaling
- NF-κB signaling [3]: reduced NF-κB signaling
- PDGF signaling [3]: reduced PDGF signaling
- NES HALLMARK_REACTIVE_OXYGEN_SPECIES_PATHWAY ([4]; 10 mg/kg/day vs. control): 1.59
- NES HALLMARK_REACTIVE_OXYGEN_SPECIES_PATHWAY ([4]; 20 mg/kg/day vs. control): 1.61
- IL-6 signaling ([4]; 30 mg/kg/day): reduced IL-6 signaling
- cell proliferation associated signaling (mitotic spindle and G2M checkpoint) ([4]; 30 mg/kg/day): reduced cell proliferation associated signaling
- inflammatory response signaling ([4]; 30 mg/kg/day): reduced inflammatory response signaling
- NES HALLMARK_REACTIVE_OXYGEN_SPECIES_PATHWAY ([4]; 30 mg/kg/day vs. control): 1.98
- GSEA: TNFα signaling via NF-κB, epithelial mesenchymal transition, inflammatory response, IL6-JAK-STAT3 signaling, mitotic spindle, G2M checkpoint ([4]; 10, 20, and 30 mg/kg/day): concordant negative enrichment
- Predicted Activation State 26s Proteasome [5]: Inhibited
- Predicted Activation State ADGRF5 [5]: Activated
- Predicted Activation State AGT [5]: Inhibited
- Predicted Activation State BMP2 [5]: Inhibited
- Predicted Activation State CCL5 [5]: Inhibited
- Predicted Activation State CCN5 [5]: Activated
- Predicted Activation State CCR2 [5]: Inhibited
- Predicted Activation State CD40LG [5]: Inhibited
- Predicted Activation State CG [5]: Inhibited
- Predicted Activation State CHRM3 [5]: Inhibited
- Predicted Activation State CSF2 [5]: Inhibited
- Predicted Activation State CSF3 [5]: Inhibited
- Predicted Activation State CXCL12 [5]: Inhibited
- Predicted Activation State DKK1 [5]: Activated
- Predicted Activation State EDN1 [5]: Inhibited
- Predicted Activation State EDNRA [5]: Inhibited
- Predicted Activation State EGF [5]: Inhibited
- Predicted Activation State F2R [5]: Inhibited
- Predicted Activation State F3 [5]: Inhibited
- Predicted Activation State FAS [5]: Activated
- Predicted Activation State FCGR1A [5]: Inhibited
- Predicted Activation State FGF2 [5]: Inhibited
- Predicted Activation State FGF23 [5]: Inhibited
- Predicted Activation State GDF2 [5]: Inhibited
- Predicted Activation State GPER1 [5]: Inhibited
- Predicted Activation State HGF [5]: Inhibited
- Predicted Activation State HTR7 [5]: Inhibited
- Predicted Activation State IFNA2 [5]: Inhibited
- Predicted Activation State IFNAR1 [5]: Inhibited
- Predicted Activation State IFNG [5]: Inhibited
- Predicted Activation State IGF1 [5]: Inhibited
- Predicted Activation State IGF1R [5]: Activated
- Predicted Activation State IL1A [5]: Inhibited
- Predicted Activation State IL1B [5]: Inhibited
- Predicted Activation State IL2 [5]: Inhibited
- Predicted Activation State IL3 [5]: Inhibited
- Predicted Activation State IL6 [5]: Inhibited
- Predicted Activation State IL6R [5]: Inhibited
- Predicted Activation State IL10 [5]: Inhibited
- Predicted Activation State IL21 [5]: Inhibited
- Predicted Activation State IL33 [5]: Inhibited
- Predicted Activation State ILR4 [5]: Inhibited
- Predicted Activation State Ifn gamma [5]: Inhibited
- Predicted Activation State Ige [5]: Inhibited
- Predicted Activation State LDL [5]: Inhibited
- Predicted Activation State LGR5 [5]: Activated
- Predicted Activation State Laminin (complex) [5]: Activated
- Predicted Activation State NFkB (complex) [5]: Inhibited
- Predicted Activation State NRG1 [5]: Inhibited
- Predicted Activation State OSM [5]: Inhibited
- Predicted Activation State PDGF BB [5]: Inhibited
- Predicted Activation State PDGFB [5]: Inhibited
- Predicted Activation State PF4 [5]: Inhibited
- Predicted Activation State PI3K (complex) [5]: Inhibited
- Predicted Activation State PLA2R1 [5]: Activated
- Predicted Activation State PRL [5]: Inhibited
- Predicted Activation State PROKR1 [5]: Activated
- Predicted Activation State PTGER4 [5]: Activated
- Predicted Activation State Pdgf (complex) [5]: Inhibited
- Predicted Activation State SMO [5]: Activated
- Predicted Activation State TCR [5]: Inhibited
- Predicted Activation State TGFB1 [5]: Inhibited
- Predicted Activation State TGFB2 [5]: Inhibited
- Predicted Activation State TGFB3 [5]: Inhibited
- Predicted Activation State TLR3 [5]: Inhibited
- Predicted Activation State TLR9 [5]: Inhibited
- Predicted Activation State TNF [5]: Inhibited
- Predicted Activation State TNFRSF1A [5]: Inhibited
- Predicted Activation State TNFSF11 [5]: Inhibited
- Predicted Activation State TNFSF12 [5]: Inhibited
- Predicted Activation State TREM1 [5]: Inhibited
- Predicted Activation State TSLP [5]: Inhibited
- Predicted Activation State TYROBP [5]: Inhibited
- Predicted Activation State VEGFA [5]: Inhibited
- Predicted Activation State VEGFB [5]: Activated
- Predicted Activation State WNT3A [5]: Inhibited
- ET1 gene signature genes downregulated [6, 8]: Grk5, Mllt3, Klf2, Pparg, Hgf, Edn1, Fos, Ptgs2, and IL-1b were downregulated
- ET1 gene signature genes upregulated [6, 8]: Ccnd1, Ppara, Agt, Map2k2 and Hoxa9 were upregulated
- ET1 gene signature genes downregulated [6, 9]: Nfatc1, Grk5, Klf2, Cav1, Pparg, Itga5, Myc, Ednra, Sell, Hgf, Mmp2, Edn1, Syk, Fos, and IL-1b were downregulated
- ET1 gene signature genes upregulated [6, 9]: Ccdn1, Cat, Ppara, Map2k2, Hoxa9, Agt, and Egfr were upregulated
- ET1 gene signature genes downregulated [6, 10]: downregulated genes Ednrb, Myc, Mllt3, Hdac7, Ednra, Itga5, Grk5, Pparg, Klf2, Hgf, Mmp2, Sell, Sphk1, Fos, Syk, Edn1, and IL-1b
- ET1 gene signature genes upregulated [6, 10]: upregulated genes Ccnd1, Agt, Cat, Map2k2, Hoxa9, and Ppara
- ET1 (Edn1) gene expression ([6]; 10, 20, and 30 mg/kg/day): downregulated across all three doses
- risk of renal events (doubling of serum creatinine or end-stage kidney disease) [7]: significantly reducing the risk of renal events
